Key:
Assay in all cases: Cross-resistance testing, His-tagged column-purified PDS (Table 2A)
[1] = molecular target: hydrilla PDS Arg^304 → Cysteine, His-tagged (Hydrilla verticillata, UniProt Q66PY0, R304C); assay type: biochemical; conditions: Cysteine at 304; His-tagged, column-purified PDS; read-out: I50
Excerpt: (§1) In further cross-resistance testing similar to that described above, an alternative production and purification protocol was used in the preparation of the mutant PDS proteins, and the activity of the proteins was again tested using the same testing protocol. The alternative approach utilized His-tagging and column purification of the mutant PDS protins. The results are shown in. Table 2A below.
(§2) The plasmid pHy4ATG5 was made by cloning the Phytoene Desaturase (pds) gene from Hydrilla verticillata, including 323 by upstream of the beginning of the putative mature protein, into the vector TOPO4 (Invitrogen, Carlsbad, Calif.): The 1-323 by region contained three potential start codons (ATG)(positions 1, 114 and 225 bp) in frame with pds. In order to express pds in bacteria, deletion clones were made for each of the three potential start codons with and without ATG. Only the results for possible origins of translation 1 and 225 by (named ORF and 3ORF) are reported here. pds was PCR amplified and subcloned into TOPO4 using pHy4ATG5 as template and the reverse primer RPDS—1849 (5′[…] 3′). The forward primers used were ORF (5′ […] 3′), ORF-ATG (5′ […] 3′), 3_ORF (5′[…] 3′) and 3_ORF-ATG (5′ […] 3′). The resulting plasmids were named pORF, pORF-ATG (minus ATG codon), p3ORF and p3ORF-ATG. The pds-containing EcoRI-fragments of these plasmids were subcloned into the EcoRI site of pRSETb vector (Invitrogen) for Histidine tagging and bacterial expression. The resulting constructs were pHy4SET, pHy4SET-ATG (minus ATG), p3ORFSET and p3ORFSET-ATG.
(§3) Plasmid p3ORF-ATG was later mutagenized at the amino acid 304 of pds to replace the amino acid Arginine (Arg) by Histidine (His), Threonine (Thr), Serine (Ser), or Cysteine (Cys), using the QuickChange™ Site-Directed Mutagenesis Kit of Stratagene (La Jolla, Calif.). Primers used to replace Arg by His were Hyd-His-For (5′[…] 3′) and Hyd-His-Rev (5′ […] 3′); to replace Arg by Thr we used primers Hyd-Thr-For (5′[…] 3′) and Hyd-Thr-Rev (5′[…] 3′); to replace Arg by Ser we used Hyd-Ser-For (5′[…] 3′) and Hyd-Ser-Rev (5′[…] 3′); and Arg was replaced by Cys using Hyd-Cys-For (5′[…] 3′) and Hyd-Cys-Rev (5′[…] 3′). Resulting plasmids were named: p3ORFHisSet-ATG, p3ORFThrSet-ATG, p3ORFSerSet-ATG and p3ORFCysSet-ATG.
(§4) All pRSET derived constructs were transformed into BL21(DE3)pLysS cells (Invitrogen), induced with IPTG for protein expression, and the His tag overproduced proteins analyzed by Western blot using Anti-HisG antibody (Invitrogen, cat. #R940-25).
(§5) When working with His-tagged PDS proteins expressed as described in Example 4, the purified protein used for testing was prepared as follows. BL21(DE3)pLysS cells were grown overnight in 500 ml Luria Broth (LB) supplemented with carbenicillin (100 mg/l) and cloramphenicol (60 mg/l) at 37° C., and induced with 0.3 mM isopropylthio-β-D-galactoside (IPTG) for 3 hrs. Cells were lysed using a French press (Spectronics Instrument) at 20,000 psi and overexpressed PDS was purified on a nickel activated Hitrap Chelating HP column according to the manufacturers instructions (Amersham Bioscience).
(§6) Generally, PDS protein fractions prepared as described above (Non-His-tagged and His-tagged) were mixed with a soluble fraction from phytoene-producing E. coli cells. For the phytoene producing cells, a plasmid construct containing the genes GGPP synthase and phytoene synthase from Erwinia uredovora, transformed into the appropriate E. coli strain, was used (see, Misawa et al., J. of Bacteriology 177:6575, 1995). This E. coli strain was separately cultured and lysed, and its soluble components collected (“the EB extract”) in a fashion similar to that described above for the PDS-producing cells.
(§7) His-tagged, purified proteins prepared as described above were transferred to the assay buffer on a PD10 column (Amersham Bioscience) and the concentration was adjusted to 100 μg/mL. […]

[2] = system: hydrilla PDS Arg^304 → Cysteine, His-tagged; assay type: biochemical, Hydrilla verticillata; conditions: Cysteine at 304 relative to Arginine; Table 2A
Excerpt: as §1, §2, §3, §4, §5, §6, §7

[3] = molecular target: hydrilla PDS Arg^304 → Histidine, His-tagged (Hydrilla verticillata, UniProt Q66PY0, R304H); assay type: biochemical; conditions: Histidine at 304; His-tagged, column-purified PDS; read-out: I50
Excerpt: as §1, §2, §3, §4, §5, §6, §7

[4] = system: hydrilla PDS Arg^304 → Histidine, His-tagged; assay type: biochemical, Hydrilla verticillata; conditions: Histidine at 304 relative to Arginine; Table 2A
Excerpt: as §1, §2, §3, §4, §5, §6, §7

[5] = molecular target: hydrilla PDS Arg^304 → Serine, His-tagged (Hydrilla verticillata, UniProt Q66PY0, R304S); assay type: biochemical; conditions: Serine at 304; His-tagged, column-purified PDS; read-out: I50
Excerpt: as §1, §2, §3, §4, §5, §6, §7

[6] = system: hydrilla PDS Arg^304 → Serine, His-tagged; assay type: biochemical, Hydrilla verticillata; conditions: Serine at 304 relative to Arginine; Table 2A
Excerpt: as §1, §2, §3, §4, §5, §6, §7

[7] = molecular target: hydrilla PDS Arg^304 → Threonine, His-tagged (Hydrilla verticillata, UniProt Q66PY0, R304T); assay type: biochemical; conditions: Threonine at 304; His-tagged, column-purified PDS; read-out: I50
Excerpt: as §1, §2, §3, §4, §5, §6, §7

[8] = system: hydrilla PDS Arg^304 → Threonine, His-tagged; assay type: biochemical, Hydrilla verticillata; conditions: Threonine at 304 relative to Arginine; Table 2A
Excerpt: as §1, §2, §3, §4, §5, §6, §7

hydrilla PDS Arg^304 → Cysteine, His-tagged (Hydrilla verticillata, UniProt Q66PY0, R304C), sequence (Q66PY0 77-580 R304C): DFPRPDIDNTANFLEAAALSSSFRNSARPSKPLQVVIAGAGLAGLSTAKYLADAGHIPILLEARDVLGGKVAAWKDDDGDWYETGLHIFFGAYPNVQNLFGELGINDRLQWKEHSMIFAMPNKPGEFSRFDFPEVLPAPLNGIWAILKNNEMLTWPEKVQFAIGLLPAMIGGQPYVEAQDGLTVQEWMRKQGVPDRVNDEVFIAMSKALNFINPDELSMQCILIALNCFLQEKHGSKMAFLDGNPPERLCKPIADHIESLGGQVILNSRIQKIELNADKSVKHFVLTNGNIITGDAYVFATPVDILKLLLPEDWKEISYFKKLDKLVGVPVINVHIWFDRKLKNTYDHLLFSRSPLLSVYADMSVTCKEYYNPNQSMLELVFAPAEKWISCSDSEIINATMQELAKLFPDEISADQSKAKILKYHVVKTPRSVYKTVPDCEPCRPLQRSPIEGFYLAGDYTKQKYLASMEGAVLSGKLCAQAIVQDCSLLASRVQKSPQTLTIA
hydrilla PDS Arg^304 → Threonine, His-tagged (Hydrilla verticillata, UniProt Q66PY0, R304T), sequence (Q66PY0 77-580 R304T): as the sequence (Q66PY0 77-580 R304C) above, with C228T counted along it
hydrilla PDS Arg^304 → Histidine, His-tagged (Hydrilla verticillata, UniProt Q66PY0, R304H), sequence (Q66PY0 77-580 R304H): as the sequence (Q66PY0 77-580 R304C) above, with C228H counted along it
hydrilla PDS Arg^304 → Serine, His-tagged (Hydrilla verticillata, UniProt Q66PY0, R304S), sequence (Q66PY0 77-580 R304S): as the sequence (Q66PY0 77-580 R304C) above, with C228S counted along it

Compound	IC50 [1] [µM]	R/S [2]	IC50 [3] [µM]	R/S [4]	IC50 [5] [µM]	R/S [6]	IC50 [7] [µM]	R/S [8]
CCC(Oc1ccc(F)c(C(F)(F)F)c1)C(=O)NCc1ccccc1 (stereo not shown) [Beflubutamid]	232	3.2	126	1.75	465	6.5	106	1.5
O=C(Nc1ccc(F)cc1F)c1cccnc1Oc1cccc(C(F)(F)F)c1 [Diflufenican]	241	2.4	103	1.0	223	2.2	104	1.0
O=C1C(Cl)C(CCl)CN1c1cccc(C(F)(F)F)c1 (stereo not shown) [Fluorochloridone]	283	2.2	364	2.8	518	4.0	210	1.6
CNC1=C(c2cccc(C(F)(F)F)c2)C(=O)C(c2ccccc2)O1 (stereo not shown) [Flurtamone]	1150	3.8	630	2.1	707	2.4	1780	5.9
CNc1cnn(-c2cccc(C(F)(F)F)c2)c(=O)c1Cl [Norflurazon]	1870	37.0	486	9.7	4100	82.0	1510	30.0
O=C(Nc1ccc(F)cc1)c1cccc(Oc2cccc(C(F)(F)F)c2)n1 [Piconilafen, Picolinafen]	96	0.3	112	0.3	62	0.2	60	0.2
Fluridone	–	2.6	–	4.8	–	2.0	–	7.8

Source: patent US20110098180A1, “Herbicide-Resistant Plants, And Polynucleotides And Methods For Providing Same” (United States Department of Agriculture, priority 2002, published 2011)
